Experimental findings from ChEMBL document CHEMBL1135158, “Pyrrolo[2,3-d]pyrimidines containing diverse N-7 substituents as potent inhibitors of Lck” (Bioorg Med Chem Lett, 2002) are described below.

Data set [1] is described as follows: Half life period was determined after intravenous administration at a dose 5 mg/kg to male Sprague-Dawley rats. The format is ADME, organism-based. Set-up: dose 5 mg/kg, route intravenous. Particulars: rat, in vivo.
Data set [2] in a line: Maximum time constant was determined after oral administration at a dose 10 mg/kg to male Sprague-Dawley rats. Set-up: dose 10 mg/kg, route oral. The format is ADME, organism-based. As to conditions: rat, in vivo.
Data set [3] in a line: Clearance was determined after intravenous administration at a dose 5 mg/kg to male Sprague-Dawley rats. The format is ADME, organism-based. Set-up: dose 5 mg/kg, route intravenous. As to conditions: rat, in vivo.
The nature of data set [4]: Bioavailability was determined after intravenous administration at a dose 5 mg/kg to male Sprague-Dawley rats. As to conditions: rat, in vivo. The format is ADME, organism-based.
The nature of data set [5]: Volume of distribution was determined after intravenous administration at a dose 5 mg/kg to male Sprague-Dawley rats. The format is ADME, organism-based. Set-up: dose 5 mg/kg, route intravenous. As to conditions: rat, in vivo, read-out: Vz.
The nature of data set [6]: Area under curve was determined after oral administration at a dose 10 mg/kg to male Sprague-Dawley rats. Particulars: rat, in vivo. Set-up: dose 10 mg/kg, route oral. The format is ADME, organism-based.
For the next data set, the species on record is Homo sapiens. Kind of data set: Inhibition of IL-2 production in whole blood assay. The format is functional.
The test system of the next data set is Jurkat. Kind of data set: Inhibition of IL-2 production in anti-CD3 stimulated Jurkat cells. Particulars: Homo sapiens. Format: functional, cell-based.
In data set [7] the test system is Mus musculus. Kind of data set: Effective dose was evaluated in vivo for the inhibition of IFN-gamma production for 3 days peroral administration of the compound. The format is functional. As to conditions: po, 72 h.
Data set [8] concerns the target Platelet-derived growth factor receptor (Homo sapiens, UniProt P09619+P16234). Nature of the data set: Inhibition of Platelet-derived growth factor receptor (Inactive at 1 mM ATP). Format: protein-complex assay.
In data set [9] the target is T1, Tyrosine-protein kinase CSK (Homo sapiens, UniProt P41240). Kind of data set: Inhibition of human Tyrosine-protein kinase CSK.
In data set [10] the target is Tyrosine-protein kinase Lyn (Homo sapiens, UniProt P07948). Kind of data set: Inhibition of human p56 Lyn tyrosine kinase.
Data set [11] has as its target Tyrosine-protein kinase Lck (Homo sapiens, UniProt P06239). Nature of the data set: Inhibition of human p56 Lck tyrosine kinase (lck64-509).
Data set [12] concerns the target Tyrosine-protein kinase Fyn (Homo sapiens, UniProt P06241). Nature of the data set: Inhibition of human p55 Fyn tyrosine kinase.
Data set [13] can be described thus: Maximum plasma concentration was determined after oral administration at a dose 10 mg/kg to male Sprague-Dawley rats. The format is ADME, organism-based. Set-up: dose 10 mg/kg, route oral. Particulars: rat.
The target of data set [14] is Tyrosine-protein kinase Blk (Homo sapiens, UniProt P51451). Kind of data set: Inhibition of human B lymphoid tyrosine kinase.
The target of data set [15] is Proto-oncogene tyrosine-protein kinase Src (Homo sapiens, UniProt P12931).
Description: Inhibition of Src protein tyrosine kinase
Data set [16] deals with T2, Angiopoietin-1 receptor (Homo sapiens, UniProt Q02763).
The target of data set [17] is T1, Tyrosine-protein kinase CSK. Nature of the data set: Inhibition of human Csk tyrosine kinase.
For data set [18], the target named is T2, Angiopoietin-1 receptor. Nature of the data set: Inhibition of TIE-2 kinase.
A short description of data set [19]: Compound was evaluated for the pharmacokinetic parameter, maximum time constant. Format: ADME, organism-based. As to conditions: mouse, in vivo.
The nature of data set [20]: Compound was evaluated for the pharmacokinetic parameter, Terminal half life period. Format: ADME, organism-based. As to conditions: mouse, in vivo.
Data set [21] is described as follows: Compound was evaluated for the pharmacokinetic parameter, area under curve. The format is ADME, organism-based. Particulars: mouse, in vivo.
Data set [22] is described as follows: Compound was evaluated for the pharmacokinetic parameter, maximum plasma concentration. Particulars: mouse. Format: ADME, organism-based.
The test system of data set [23] is Mus musculus. Nature of the data set: Compound was evaluated for inhibition of interleukin - 2 (IL-2) production in anti -CD3 mAb stimulation in mice after intraperitoneal administration. Format: functional. Particulars: ip.
Data set [24] concerns Mus musculus. Nature of the data set: Compound was evaluated for inhibition of interleukin - 2 (IL-2) production in anti -CD3 mAb stimulation in mice after oral administration. The format is functional.
The target in data set [25] is Vascular endothelial growth factor receptor 2 (Homo sapiens, UniProt P35968). Kind of data set: Inhibition of Vascular endothelial growth factor receptor 2.
Data set [26] concerns the target T2, Angiopoietin-1 receptor. Nature of the data set: Inhibition of TIE-2 kinase.
The subject of data set [27] is Mus musculus. Kind of data set: Compound was evaluated for the inhibition of TCR stimulated (anti-CD3 mAb) IL-2 production in mice following oral administration. The format is functional.

Proto-oncogene tyrosine-protein kinase Src, sequence (P12931 2-536 limits assumed): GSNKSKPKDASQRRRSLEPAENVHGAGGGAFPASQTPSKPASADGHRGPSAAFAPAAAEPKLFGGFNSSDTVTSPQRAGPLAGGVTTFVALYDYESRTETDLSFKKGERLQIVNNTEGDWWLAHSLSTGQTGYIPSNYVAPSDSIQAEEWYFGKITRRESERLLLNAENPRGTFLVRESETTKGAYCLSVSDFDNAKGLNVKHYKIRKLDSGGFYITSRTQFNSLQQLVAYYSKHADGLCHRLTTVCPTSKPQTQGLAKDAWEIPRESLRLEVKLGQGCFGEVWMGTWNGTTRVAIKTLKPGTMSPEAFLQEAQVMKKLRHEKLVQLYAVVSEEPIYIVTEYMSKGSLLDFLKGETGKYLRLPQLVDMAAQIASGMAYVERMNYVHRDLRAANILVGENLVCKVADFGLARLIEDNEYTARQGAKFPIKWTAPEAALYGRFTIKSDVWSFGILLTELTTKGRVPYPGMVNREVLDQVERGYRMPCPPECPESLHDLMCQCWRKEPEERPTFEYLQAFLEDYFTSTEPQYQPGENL
Tyrosine-protein kinase Lck, sequence (P06239 whole entry): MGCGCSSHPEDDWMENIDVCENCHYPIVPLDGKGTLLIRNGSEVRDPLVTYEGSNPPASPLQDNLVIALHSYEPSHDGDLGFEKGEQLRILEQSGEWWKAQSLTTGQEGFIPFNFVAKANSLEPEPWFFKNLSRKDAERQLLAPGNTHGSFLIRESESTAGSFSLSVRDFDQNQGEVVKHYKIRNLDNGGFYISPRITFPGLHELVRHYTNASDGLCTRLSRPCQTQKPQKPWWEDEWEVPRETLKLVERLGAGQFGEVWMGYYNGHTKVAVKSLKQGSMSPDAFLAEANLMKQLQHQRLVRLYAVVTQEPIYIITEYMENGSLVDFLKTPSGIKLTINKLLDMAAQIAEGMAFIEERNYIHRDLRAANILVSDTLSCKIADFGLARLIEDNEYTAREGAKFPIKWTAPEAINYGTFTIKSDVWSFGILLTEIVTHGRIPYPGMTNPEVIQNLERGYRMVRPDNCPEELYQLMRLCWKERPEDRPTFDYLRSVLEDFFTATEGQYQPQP
T2 sequence (Q02763 whole entry): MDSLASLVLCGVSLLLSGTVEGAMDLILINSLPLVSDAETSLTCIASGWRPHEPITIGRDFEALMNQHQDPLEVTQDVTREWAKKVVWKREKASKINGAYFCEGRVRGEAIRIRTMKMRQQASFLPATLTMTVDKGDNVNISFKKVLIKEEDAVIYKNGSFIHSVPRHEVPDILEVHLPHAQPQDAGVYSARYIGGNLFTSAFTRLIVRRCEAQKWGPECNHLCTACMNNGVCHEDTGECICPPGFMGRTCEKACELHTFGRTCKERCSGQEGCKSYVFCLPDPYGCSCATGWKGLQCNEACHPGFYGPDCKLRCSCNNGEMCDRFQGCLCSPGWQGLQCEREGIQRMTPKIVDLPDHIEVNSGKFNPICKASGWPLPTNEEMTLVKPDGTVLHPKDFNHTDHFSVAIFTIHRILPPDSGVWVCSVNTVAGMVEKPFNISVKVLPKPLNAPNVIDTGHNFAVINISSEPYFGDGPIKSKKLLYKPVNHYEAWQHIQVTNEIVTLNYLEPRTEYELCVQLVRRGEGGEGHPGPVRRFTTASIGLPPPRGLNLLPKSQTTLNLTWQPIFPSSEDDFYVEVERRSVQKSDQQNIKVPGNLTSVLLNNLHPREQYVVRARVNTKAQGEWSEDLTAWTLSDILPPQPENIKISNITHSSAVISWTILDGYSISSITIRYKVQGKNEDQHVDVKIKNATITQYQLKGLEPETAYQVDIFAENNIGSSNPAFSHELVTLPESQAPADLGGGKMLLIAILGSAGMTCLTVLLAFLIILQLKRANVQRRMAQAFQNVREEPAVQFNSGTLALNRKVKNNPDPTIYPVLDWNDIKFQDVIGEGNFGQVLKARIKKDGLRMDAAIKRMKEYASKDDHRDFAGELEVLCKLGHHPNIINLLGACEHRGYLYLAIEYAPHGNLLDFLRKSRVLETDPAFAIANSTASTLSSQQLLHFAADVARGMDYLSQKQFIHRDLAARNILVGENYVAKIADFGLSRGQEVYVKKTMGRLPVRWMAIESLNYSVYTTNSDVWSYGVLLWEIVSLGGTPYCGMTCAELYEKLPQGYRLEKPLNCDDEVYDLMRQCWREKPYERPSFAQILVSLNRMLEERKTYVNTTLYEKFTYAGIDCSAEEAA
Tyrosine-protein kinase Fyn, sequence (P06241 whole entry): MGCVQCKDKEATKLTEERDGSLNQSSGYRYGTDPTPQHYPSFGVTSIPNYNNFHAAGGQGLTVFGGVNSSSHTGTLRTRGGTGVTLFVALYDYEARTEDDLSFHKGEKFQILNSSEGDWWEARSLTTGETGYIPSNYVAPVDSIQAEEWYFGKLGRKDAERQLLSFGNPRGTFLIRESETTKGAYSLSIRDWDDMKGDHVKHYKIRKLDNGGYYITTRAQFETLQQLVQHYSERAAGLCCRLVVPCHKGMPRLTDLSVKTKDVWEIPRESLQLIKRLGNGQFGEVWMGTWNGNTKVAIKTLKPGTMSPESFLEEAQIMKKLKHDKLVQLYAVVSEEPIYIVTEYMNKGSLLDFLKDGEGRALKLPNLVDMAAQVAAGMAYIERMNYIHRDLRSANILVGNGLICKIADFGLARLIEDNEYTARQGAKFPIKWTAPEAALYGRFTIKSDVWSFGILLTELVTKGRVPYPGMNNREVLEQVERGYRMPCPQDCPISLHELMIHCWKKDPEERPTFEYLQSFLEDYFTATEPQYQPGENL
Tyrosine-protein kinase Lyn, sequence (P07948 whole entry): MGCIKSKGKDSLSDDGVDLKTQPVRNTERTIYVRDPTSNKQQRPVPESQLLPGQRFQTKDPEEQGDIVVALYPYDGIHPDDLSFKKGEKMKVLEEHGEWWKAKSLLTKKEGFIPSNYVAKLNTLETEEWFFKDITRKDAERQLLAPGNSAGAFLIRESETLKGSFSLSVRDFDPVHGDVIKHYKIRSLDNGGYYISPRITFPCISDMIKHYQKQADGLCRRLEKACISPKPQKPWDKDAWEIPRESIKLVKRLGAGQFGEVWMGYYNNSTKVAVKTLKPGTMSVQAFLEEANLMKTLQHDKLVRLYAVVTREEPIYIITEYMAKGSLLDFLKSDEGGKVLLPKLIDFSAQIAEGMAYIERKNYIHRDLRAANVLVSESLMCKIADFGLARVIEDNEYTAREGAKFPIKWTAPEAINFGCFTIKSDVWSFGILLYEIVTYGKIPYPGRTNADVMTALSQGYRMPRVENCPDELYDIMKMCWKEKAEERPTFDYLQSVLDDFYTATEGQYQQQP
Tyrosine-protein kinase Blk, sequence (P51451 whole entry): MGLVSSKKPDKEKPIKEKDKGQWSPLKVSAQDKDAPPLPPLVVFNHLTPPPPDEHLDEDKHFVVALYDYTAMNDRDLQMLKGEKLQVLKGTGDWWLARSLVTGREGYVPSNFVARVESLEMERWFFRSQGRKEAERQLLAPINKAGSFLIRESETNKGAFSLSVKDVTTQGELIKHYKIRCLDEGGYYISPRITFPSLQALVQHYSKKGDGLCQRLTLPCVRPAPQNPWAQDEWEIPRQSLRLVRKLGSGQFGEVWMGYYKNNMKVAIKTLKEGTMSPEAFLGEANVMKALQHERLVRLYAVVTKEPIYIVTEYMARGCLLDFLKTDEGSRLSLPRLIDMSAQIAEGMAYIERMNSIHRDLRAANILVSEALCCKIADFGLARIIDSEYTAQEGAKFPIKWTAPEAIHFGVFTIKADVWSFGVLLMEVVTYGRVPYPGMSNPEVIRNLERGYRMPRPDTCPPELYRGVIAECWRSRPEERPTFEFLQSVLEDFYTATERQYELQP
T1 sequence (P41240 whole entry): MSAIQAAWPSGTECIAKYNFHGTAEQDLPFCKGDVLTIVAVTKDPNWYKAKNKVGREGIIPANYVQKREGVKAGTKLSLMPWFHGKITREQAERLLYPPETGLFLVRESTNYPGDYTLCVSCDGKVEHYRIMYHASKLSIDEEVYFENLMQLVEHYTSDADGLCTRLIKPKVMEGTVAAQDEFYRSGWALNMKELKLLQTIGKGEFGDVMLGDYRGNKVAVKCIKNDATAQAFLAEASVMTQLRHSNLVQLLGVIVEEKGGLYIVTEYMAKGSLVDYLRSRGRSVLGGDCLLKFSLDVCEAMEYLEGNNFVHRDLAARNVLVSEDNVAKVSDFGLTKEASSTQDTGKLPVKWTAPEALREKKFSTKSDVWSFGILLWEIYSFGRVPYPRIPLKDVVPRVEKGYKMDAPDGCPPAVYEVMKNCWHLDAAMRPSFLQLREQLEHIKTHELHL

`CN1CCN([C@H]2CC[C@@H](n3cc(-c4ccc(Oc5ccccc5)cc4)c4c(N)ncnc43)CC2)CC1` showed a half-life in [1] of 14.3 h. Besides, the Tmax in [2] stood at 4 h. This compound also showed a clearance in data set [3] of 88.3 mL/min/kg. The compound further showed a bioavailability in data set [4] of 54%. Moreover, the Vd in data set [5] is 140 L/kg. This compound also came in with an AUC in data set [6] of 661 ng·h/mL. Further, the IC50 in the data set listed under Homo sapiens is 70 nM; in the data set on Jurkat it was 25 nM; in data set [8], above 20000 nM; in [9], 41 nM; in [10], 29 nM; in data set [11] it was 15 nM. The IC50 in [12] worked out at 59 nM; in data set [14], 46 nM; in data set [15] it was 42 nM; at Angiopoietin-1 receptor [16] it was 250 nM. Besides, in the data set with Mus musculus [7], the ED50 is 2.2 mg/kg. The compound further yielded a Cmax in [13] of 113 nM.
In the case of `CN1CCN([C@H]2CC[C@H](n3cc(-c4ccc(Oc5ccccc5)cc4)c4c(N)ncnc43)CC2)CC1`, the IC50 stood at 4270 nM in [17]; 5850 nM against Angiopoietin-1 receptor [18]; 430 nM in data set [10]; 240 nM in data set [11]; 2030 nM in data set [12]; 370 nM in data set [14]. In [15], this compound yielded an IC50 of 1190 nM.
In the case of `Nc1ncnc2c1c(-c1ccc(Oc3ccccc3)cc1)cn2C1CCCC1`, the Tmax in [19] stood at 0.25 h. This compound also showed a half-life in data set [20] of 7.7 h. In [21], this compound returned an AUC of 34.3 ng·h/mL. This compound also yielded a peak concentration (Cmax) in [22] of 28 nM. For the same compound, the figures for the ED50 in the data set on Mus musculus [23] and in the data set on Mus musculus [24] were 4 mg/kg and 25 mg/kg, respectively. Moreover, the IC50 worked out at 4440 nM in data set [25], 100 nM in data set [11], 9070 nM on Angiopoietin-1 receptor [26] and 560 nM in data set [15].
`NCCn1cc(-c2ccc(Oc3ccccc3)cc2)c2c(N)ncnc21`: at Angiopoietin-1 receptor [16], the IC50 was above 50000 nM.
On to `CN1CCN([C@H]2CC[C@@H](n3cc(-c4ccc(Oc5ccccc5)cc4)c4c(N)ncnc43)CC2)CC1.O=C(O)/C=C\C(=O)O`, for which the ED50 in the data set on Mus musculus [27] worked out at 2.5 mg/kg.

What is called half-life is how long it takes for the measured level to halve. The Tmax is the time at which the peak concentration occurs. By clearance is commonly meant a measure of how efficiently the substance is removed, as volume per time. Low readings indicate a low capacity for elimination, high ones a high capacity for elimination. Usually bioavailability stands for dose-corrected exposure relative to a reference, in per cent. High values mean good availability, low ones poor availability. As usually defined, the AUC is concentration integrated over time. Usually IC50 stands for the concentration needed to halve the response being measured. The term ED50 denotes the midpoint of the dose-response relation. A lower ED50 goes with an effect at a small dose. As usually defined, the Cmax is the maximum level reached in the sampled fluid or tissue.
